Active and inactive are the calls of the source. No cut-off for these calls is given here.
Experiments:
[1] = tested on: RAW264.7; experiment: Anti-inflammatory activity in mouse RAW264.7 cells assessed as reduction in COX2 protein expression at 30 uM preincubated for 30 mins before LPS stimulation for 24 hrs by Western blot analysis; format: functional, cell-based
[2] = tested on: RAW264.7; experiment: Anti-inflammatory activity in mouse RAW264.7 cells assessed as reduction in iNOS protein expression preincubated for 30 mins before LPS stimulation for 24 hrs by Western blot analysis; format: functional, cell-based
[3] = tested on: RAW264.7; experiment: Cytotoxicity against mouse RAW264.7 cells at 30 uM after 24 hrs in presence of LPS by MTT assay; format: cell-based; settings: raw264.7, 24 h
[4] = tested on: RAW264.7; experiment: Anti-inflammatory activity in mouse RAW264.7 cells assessed as inhibition of LPS-induced nitric oxide production after 24 hrs by Griess method; format: functional, cell-based; settings: RAW264.7, 24 h
[5] = tested on: RAW264.7; experiment: Cytotoxicity against mouse RAW264.7 cells at 30 uM after 24 hrs in absence of LPS by MTT assay; format: cell-based; settings: raw264.7, 24 h
[6] = tested on: RAW264.7; experiment: Anti-inflammatory activity in mouse RAW264.7 cells assessed as reduction in LPS-induced COX2 mRNA expression preincubated for 30 mins followed by LPS stimulation measured after 8 hrs by real-time qPCR method; format: functional, cell-based
[7] = tested on: RAW264.7; experiment: Anti-inflammatory activity in mouse RAW264.7 cells assessed as reduction in LPS-induced TNFalpha mRNA expression preincubated for 30 mins followed by LPS stimulation measured after 8 hrs by real-time qPCR method; format: functional, cell-based
[8] = tested on: RAW264.7; experiment: Anti-inflammatory activity in mouse RAW264.7 cells assessed as reduction in LPS-induced iNOS mRNA expression preincubated for 30 mins followed by LPS stimulation measured after 8 hrs by real-time qPCR method; format: functional, cell-based
[9] = tested on: RAW264.7; experiment: Anti-inflammatory activity in mouse RAW264.7 cells assessed as reduction in LPS-induced IL6 mRNA expression preincubated for 30 mins followed by LPS stimulation measured after 8 hrs by real-time qPCR method; format: functional, cell-based

IC50 [4] | SMILES | Activity [1] | Activity [2] | Activity [3] | Activity [5] | Activity [6] | Activity [7] | Activity [8] | Activity [9]
6.2 µM | C#CCCCCCCCCC/C=C1/C(=O)O[C@H](C)[C@H]1O | Active | Dose-dependent effect | Non-Toxic | Non-Toxic | – | – | – | –
> 30 µM | CCCCC/C=C/C/C=C/CCCC/C=C/C1=CC(C)OC1=O (centres undefined) | – | – | Non-Toxic | Non-Toxic | – | – | – | –
> 30 µM | C=CCCCCCCCC/C=C/[C@H]1C(=O)O[C@@H](C)[C@H]1O | – | – | Non-Toxic | Non-Toxic | – | – | – | –
12.8 µM | C#CCCCCCCCCC/C=C1\C(=O)O[C@H](C)[C@H]1O | – | Dose-dependent effect | Non-Toxic | Non-Toxic | – | – | – | –
5.8 µM | C=C/C=C/CCCCCCCCC/C=C1/C(=O)O[C@H](C)[C@H]1O | Active | Dose-dependent effect | Non-Toxic | Non-Toxic | – | – | – | –
3 µM | C=CCCCCCCCCC/C=C1/C(=O)O[C@@H](C)[C@H]1O | – | – | Non-Toxic | Non-Toxic | – | – | – | –
> 30 µM | CCCCCCCCCC/C=C/C1=CC(C)OC1=O (centres undefined) | – | – | Non-Toxic | Non-Toxic | – | – | – | –
> 30 µM | C#CCCCCCCCC/C=C/C1=CC(C)OC1=O (centres undefined) | – | – | Non-Toxic | Non-Toxic | – | – | – | –
2.9 µM | CCCCCCCCCCC/C=C1/C(=O)O[C@H](C)[C@H]1O | – | – | Non-Toxic | Non-Toxic | – | – | – | –
4.5 µM | C=CCCCCCCCCC/C=C1\C(=O)O[C@H](C)[C@H]1O | – | Dose-dependent effect | Non-Toxic | Non-Toxic | – | – | – | –
2.5 µM | CC/C=C/CCCCCCCCC/C=C1/C(=O)O[C@H](C)[C@H]1O | – | – | Non-Toxic | Non-Toxic | – | – | – | –
3.1 µM | C=CCCCCCCCCC/C=C1/C(=O)O[C@H](C)[C@H]1O | Active | Dose-dependent effect | Non-Toxic | Non-Toxic | Dose-dependent effect | Dose-dependent effect | Dose-dependent effect | Dose-dependent effect
> 30 µM | CCCCCCCCCCCC/C=C/C1=CC(C)OC1=O (centres undefined) | – | – | Non-Toxic | Non-Toxic | – | – | – | –
14 µM | C=CCCCCCCCC/C=C/[C@H]1C(=O)O[C@H](C)[C@@H]1O | – | – | Non-Toxic | Non-Toxic | – | – | – | –
4.4 µM | CCCCC/C=C\C/C=C\CCCCC/C=C1/C(=O)O[C@H](C)[C@H]1O | Active | Dose-dependent effect | Non-Toxic | Non-Toxic | – | – | – | –
> 30 µM | C=CCCCCCCCC/C=C/C1=CC(C)OC1=O (centres undefined) | – | – | Non-Toxic | Non-Toxic | – | – | – | –
> 30 µM | C=C/C=C/CCCCCCCC/C=C/C1=CC(C)OC1=O (centres undefined) | – | – | Non-Toxic | Non-Toxic | – | – | – | –
> 30 µM | C#CCCCCCCCC/C=C/[C@H]1C(=O)O[C@@H](C)[C@H]1O [LITSEALACTONE B] | – | – | Non-Toxic | Non-Toxic | – | – | – | –

SMILES | IC50 [4] | Activity [1] | Activity [2] | Activity [3] | Activity [5] | Activity [6] | Activity [7] | Activity [8] | Activity [9]
CC1=C(O)C(=O)C=C2C1=CC=C1[C@@]2(C)CC[C@@]2(C)[C@@H]3C[C@](C)(C(=O)O)CC[C@]3(C)CC[C@]12C [CELASTROL] | 1 µM | – | – | – | – | – | – | – | –

Reference: ChEMBL document CHEMBL4118158, “Lactones from the pericarps of Litsea japonica and their anti-inflammatory activities” (Bioorg Med Chem Lett, 2018)
